{"source": "patent US6124287A", "about": "“Imidazo[1,2-a]quinoxalin-4-amines active as adenosine antagonists, process for their preparation and pharmaceutical compositions thereof” (Biomedica Foscama Industria Chimicofarmaceutica S.p.A., priority 1995, dated 2000)", "key": {"[1]": {"target": "T1, A1 receptors (Rattus norvegicus, UniProt P25099)", "T1 construct": "preparations of synaptosomial membranes from rat brain; from tissue; host or cells: rat brain synaptosomal membranes", "T1 sequence (P25099 1-326)": "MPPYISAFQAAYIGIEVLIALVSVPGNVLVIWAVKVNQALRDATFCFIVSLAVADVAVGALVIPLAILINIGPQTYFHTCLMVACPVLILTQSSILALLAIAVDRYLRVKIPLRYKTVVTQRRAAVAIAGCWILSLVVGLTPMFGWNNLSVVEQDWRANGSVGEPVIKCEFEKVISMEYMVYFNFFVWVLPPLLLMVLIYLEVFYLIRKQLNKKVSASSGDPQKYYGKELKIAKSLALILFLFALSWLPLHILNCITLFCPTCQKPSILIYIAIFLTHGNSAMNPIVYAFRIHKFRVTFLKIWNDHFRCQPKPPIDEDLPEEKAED", "assay": "Binding on A1 receptors, rat brain synaptosomial membranes, [3H]-DPCPX", "settings": "0.3 nM [3H]-DPCPX, 1 h, 25° C., pH 7.4", "protocol": "(§1) Binding on the adenosine receptors.\nThe binding on A1 receptors has been carried out according to the method described in Naunyn-Schmied. Arch. Pharmacol. 1987, 336, 204 on preparations of synaptosomial membranes from rat brain by incubating 200 μg of membrane proteins for 1 h at 25° C. with the substance to be tested and 0.3 nM [^3 H]-DPCPX in 400 μl of 50 mM Tris.HCl pH=7.4. The non-specific binding has been determined with […].\n(§2) The incubations were blocked by filtration by means of a cell-harvester and, after completion of the separation of the bound from the free, the radioactivity contents were evaluated by liquid scintillation. The concentration-inhibition curves were obtained by assaying the receptor displacement at at least ten different concentrations of the test substance (all the assays were carried out in triplicate). The tested substances were dissolved in dimethyl sulphoxide and diluted in 50 mM Tris.HCl buffer pH=7.4. The IC50 values have been determined by non-linear regression curves and transformed into Ki values according to the Cheng-Prusoff equation."}, "[2]": {"assay": "Forced swim test", "format": "in vivo, Male ablino CD 1 mice", "settings": "1 h before immersion", "protocol": "Forced swim test The test described by R. D. Porsolt et al. in Arch.Int.Pharmacodyn.Ther. 1977, 229, 327, has been carried out which is widely used as an animal model for the study of the antidepressant activity of new drugs. Male ablino CD 1 mice weighing 25-35 g were used. One hour before immersion in water, the test compound is intraperitoneally (i.p.) administered to the animal; the vehicle is administered to the control animals. The duration of permanence in water is 6'; from the 2nd to the 6th minute the time is measured during which the animal remains motionless. […] As the reference substance the tricyclic antidepressant drug desipramine was used."}, "[3]": {"target": "T2, A1 receptors (Rattus norvegicus, UniProt P30543)", "T2 construct": "preparations of rat striatal membranes; from tissue; host or cells: rat striatal membranes", "T2 sequence (P30543 whole entry)": "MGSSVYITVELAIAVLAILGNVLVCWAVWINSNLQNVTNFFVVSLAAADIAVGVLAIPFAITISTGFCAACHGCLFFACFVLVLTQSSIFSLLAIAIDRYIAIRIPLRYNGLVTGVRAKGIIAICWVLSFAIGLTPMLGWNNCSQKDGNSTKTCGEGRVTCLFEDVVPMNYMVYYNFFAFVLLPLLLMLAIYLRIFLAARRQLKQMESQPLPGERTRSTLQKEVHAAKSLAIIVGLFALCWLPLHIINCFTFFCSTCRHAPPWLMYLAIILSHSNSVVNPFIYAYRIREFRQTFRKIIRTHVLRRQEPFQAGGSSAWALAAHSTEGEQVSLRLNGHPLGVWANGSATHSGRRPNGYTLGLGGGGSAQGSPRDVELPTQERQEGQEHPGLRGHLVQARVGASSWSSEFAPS", "assay": "Binding on receptors (printed A1) of rat striatal membranes, [3H]-CGS21680 + CPA", "settings": "5 nM [3H]-CGS21680, 50 nM CPA, 1 h, 25° C.", "protocol": "as §1\nThe binding on […] receptors has been carried out according to the method described in FASEB J. 1989, 3, A1047 on preparations of rat striatal membranes by incubating 200 μg of membrane proteins for 1 h at 25° C. with the substance to be tested, 5 nM [^3 H]-CGS21680 and 50 nM CPA. The non-specific binding has been determined with 100 nM CPA.\nas §2"}, "[4]": {"assay": "Tail suspension test", "format": "in vivo, Male albino CD 1 mice", "settings": "half an hour before test", "protocol": "Tail suspension test The test described by L. Steru, et al. in Psychopharmacology 1985, 85, 367, also widely used as an animal model for the screening of antidepressant activity has been carried out. Male albino CD 1 mice weighing 25-35 g were used. Half an hour before the test, the animal is administered the test compound by the i.p. route; the control animals are administered the vehicle. The mouse is suspended from a horizontal bar at about 40 cm from the support plane by means of an adhesive tape applied at the end of the tail and secured to a hook. […] As the reference substance the tricyclic antidepressant drug desipramine was used."}, "[5]": {"test_system": "adenosine receptors", "settings": "cited from earlier work"}}, "note": "pKi: −log10 of the molar value."}
{"smiles": "Clc1cc2nc(NC3CCCC3)c3nccn3c2cc1Cl", "note": "[COMPOUND EX. 22, 4-cyclopentylamino-7,8-dichloroimidazo[1,2-a]quinoxaline]", "values": [{"measurement": "pKi", "setting": "[1]", "value": 7.58}]}
{"smiles": "Fc1ccc2nc(NC3CCCC3)c3nccn3c2c1", "note": "[COMPOUND EX. 25]", "values": [{"measurement": "pKi", "setting": "[1]", "value": 7.08}]}
{"smiles": "Clc1ccc2nc(NC3CCCC3)c3nccn3c2c1", "note": "[COMPOUND EX. 18, 4-cyclopentylamino-8-chloroimidazo[1,2-a]quinoxaline]", "values": [{"measurement": "pKi", "setting": "[1]", "value": 7.63}, {"measurement": "% variation immobility time vs. C.", "setting": "[2]; 1 mg/kg i.p.", "value": -42.3, "unit": "%"}, {"measurement": "% variation immobility time vs. C.", "setting": "[2]; 10 mg/kg i.p.", "value": -52.8, "unit": "%"}]}
{"smiles": "Cc1cnc2c(NC3CCCC3)nc3ccccc3n12", "note": "[COMPOUND EX. 9, 4-cyclopentylamino-1-methyl imidazo [1,2-a]quinoxaline]", "values": [{"measurement": "pKi", "setting": "[1]", "value": 8.10}, {"measurement": "pKi", "setting": "[3]", "value": 5.60}, {"measurement": "% variation immobility time vs. C.", "setting": "[2]; 0.001 mg/kg i.p.", "value": -32.8, "unit": "%"}, {"measurement": "% variation immobility time vs. C.", "setting": "[2]; 0.01 mg/kg i.p.", "value": -45.3, "unit": "%"}, {"measurement": "% variation immobility time vs. C.", "setting": "[4]; 0.001 mg/kg i.p.", "value": -26.7, "unit": "%"}, {"measurement": "% variation immobility time vs. C.", "setting": "[4]; 0.01 mg/kg i.p.", "value": -41.1, "unit": "%"}, {"measurement": "% variation immobility time vs. C.", "setting": "[4]; 0.1 mg/kg i.p.", "value": -64.3, "unit": "%"}]}
{"smiles": "CCC(CC)Nc1nc2ccccc2n2c(C)cnc12", "note": "[COMPOUND EX. 5, 4-(1-ethylpropylamino)-1-methylimidazo[1,2-a] quinoxaline]", "values": [{"measurement": "pKi", "setting": "[1]", "value": 7.27}]}
{"smiles": "Cc1cnc2c(N3CCN(C)CC3)nc3ccccc3n12", "note": "[COMPOUND EX. 16, 1-methyl-4(N'-methylpiperazinyl)imidazo[1,2-a]quinoxaline]", "values": [{"measurement": "% variation immobility time vs. C.", "setting": "[2]; 0.1 mg/kg i.p.", "value": -22.4, "unit": "%"}, {"measurement": "% variation immobility time vs. C.", "setting": "[2]; 1 mg/kg i.p.", "value": -51.4, "unit": "%"}]}
{"smiles": "Cc1cnc2c(NC3CCCCC3)nc3ccc(Cl)cc3n12", "note": "[COMPOUND EX. 21, 4-cyclohexylamino-8-chloro-1-methylimidazo[1,2-a]quinoxaline]", "values": [{"measurement": "% variation immobility time vs. C.", "setting": "[2]; 0.001 mg/kg i.p.", "value": -33.0, "unit": "%"}, {"measurement": "% variation immobility time vs. C.", "setting": "[2]; 0.01 mg/kg i.p.", "value": -48.6, "unit": "%"}]}
{"smiles": "CNCCCN1c2ccccc2CCc2ccccc21", "note": "[DESIPRAMINE, reference compound]", "values": [{"measurement": "% variation immobility time vs. C.", "setting": "[2]; 7.5 mg/kg i.p.", "value": -10.4, "unit": "%"}, {"measurement": "% variation immobility time vs. C.", "setting": "[2]; 30 mg/kg i.p.", "value": -41.4, "unit": "%"}, {"measurement": "% variation immobility time vs. C.", "setting": "[4]; 4 mg/kg i.p.", "value": -21.3, "unit": "%"}, {"measurement": "% variation immobility time vs. C.", "setting": "[4]; 16 mg/kg i.p.", "value": -62.4, "unit": "%"}]}
{"smiles": "Cn1c(=O)c2c(ncn2C)n(C)c1=O", "note": "[caffeine, 1,3,7-trimethylxanthine]", "values": [{"measurement": "affinity to the adenosine receptors", "setting": "[5]", "value": "low affinity"}]}
{"smiles": "Cc1cnc2c(N3CCCCC3)nc3ccccc3n12", "note": "[COMPOUND EX. 13, 1-methyl-4-piperidinylimidazo[1,2-a]quinoxaline]", "values": [{"measurement": "% variation immobility time vs. C.", "setting": "[2]; 0.1 mg/kg i.p.", "value": -23.5, "unit": "%"}, {"measurement": "% variation immobility time vs. C.", "setting": "[2]; 1 mg/kg i.p.", "value": -70.7, "unit": "%"}]}
{"smiles": "Cn1c(=O)c2[nH]cnc2n(C)c1=O", "note": "[theophylline, 1,3-dimethylxanthine]", "values": [{"measurement": "affinity to the adenosine receptors", "setting": "[5]", "value": "low affinity"}]}
